Structures can show the parent of a compound that is named as a salt.

This experiment concerns the target T1, untagged HECT of NEDD4 wild-type (WT) (E3 ligase) (Homo sapiens, UniProt P46934).
T1 construct: untagged HECT of NEDD4 wild-type (WT) (E3 ligase); made in house
T1 sequence (P46934 519-900 isoform P46934-4 limits assumed): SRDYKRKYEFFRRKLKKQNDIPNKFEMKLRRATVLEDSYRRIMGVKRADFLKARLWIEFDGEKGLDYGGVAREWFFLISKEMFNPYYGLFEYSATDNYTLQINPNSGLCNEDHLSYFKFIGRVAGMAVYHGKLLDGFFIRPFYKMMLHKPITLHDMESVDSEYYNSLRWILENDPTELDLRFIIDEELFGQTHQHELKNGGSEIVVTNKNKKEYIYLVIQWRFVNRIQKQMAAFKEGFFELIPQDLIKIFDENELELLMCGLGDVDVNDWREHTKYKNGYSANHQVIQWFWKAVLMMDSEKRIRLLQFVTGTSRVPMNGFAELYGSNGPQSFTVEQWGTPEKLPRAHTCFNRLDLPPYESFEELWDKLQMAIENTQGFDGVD
The experiment can be described thus: In vitro ubiquitination assay TR-FRET based (self-ubiquitination of NEDD4). In kind it is biochemical. The note with it: at 11 μM; pre-incubated for 1 hour; AUC of 120 minutes kinetic; read-out: percentages of inhibition (NEDD4). The source says:
FIG. 1: TR-FRET kinetic assay performed with compound 12. […] Reactions were initiated with the addition of ATP. As labeled ubiquitin molecules become incorporated into chains they come into close proximity, resulting in energy transfer and increased signal to background detection. The activity of the enzyme is continuously and real time detected and it is expressed as % of signal/background during the time.
In order to quantitatively measure the self-ubiquitination process of the E3 HECT ligase NEDD4 the inventors employed a TR-FRET based assay. TR-FRET technology exploits the long-lasting emission of lanthanide fluorescence to interpose a short time-delay between FRET donor excitation and emission. This phenomenon enables to isolate real fluorescent signals from short-lived background emissions, thus reducing possible interference from compounds.
In the present study, elongation of the ubiqutin chain by NEDD4 is measured by adding bacterially expressed E1, His-tagged UBE2D3 (E2) and untagged HECT of NEDD4 wild-type (WT) (E3 ligase) (named in FIG. 1 as WT) enzymes to a mixture of Eu-cryptate ubiquitin, Cy5-ubiquitin and wild-type ubiquitin, combined in a ratio optimized for TR-FRET based conjugation (100×TRF-Ubiquitin Mix, SBB-TR0051). […] Bacterially expressed E1, His-tagged UBE2D3 (E2), untagged HECT NEDD4 (E3 ligase) WT and NEDD4 C/A enzymes were produced and purified as reported in E. Maspero et al. Methods Mol Biol. 1449:153-60 (2016).
Enzymatic incorporation of the labeled TRF-Ubiquitin mix into chains leads to an increase in fluorescence emission at 665 nm (emission of the acceptor Cy5-Ubiquitin, Emacceptor) and decrease at emission wavelength 620 nm (emission of the donor Eu-cryptate Ubiquitin, Emdonor).
The assay was performed in a 384-well plate format (Optiplate, Perkin Elmer, #6007290) on an automated liquid-handler (Hamilton STAR, Hamilton Robotics, Switzerland).
All compounds were dissolved in 100% DMSO and serially diluted in 96-well plates (from 100 μM to 0.005 μM).
Briefly, all reagents were thawed and kept on ice. A master mix containing E1, E2, E3 and TRF-Ubiquitin Mix (SBB-TR0051) diluted in the assay buffer (Tris-HCl pH 7.6 25 mM, NaCl 100 mM, MgCl2 5 mM and Tween 0.01%) is prepared and 50 μl/well is dispensed in a 384 well plate. 3 μl of compounds dissolved in DMSO in the above-indicated concentration range were added and pre-incubated for 1 hour. Final E1, E2 and E3 concentrations in the assay buffer (Tris-HCl pH 7.6 25 mM, NaCl 100 mM, MgCl2 5 mM and Tween 0.01%) were 30, 350 and 50 nanomolars, respectively. The reaction was initiated with the addition of ATP (22 μl of 2 mM ATP, JenaBioscience, NU-1010) and was allowed to proceed for 120 minutes, measuring fluorescence emission at 665 nm and 620 nm in real-time on an EnSpire microplate reader (Perkin Elmer).
Kinetic raw data were analyzed by Area Under the Curve (AUC) method using Prism GraphPad software.
% signal/background corresponds to the following equation: (Experimental signal−Background signal)/Background signal×100%
Experimental signal corresponds to the signal obtained by the enzymatic reaction in presence of the vehicle (DMSO) and/or the different compound concentrations. Background signal corresponds to the signal obtained by the enzymatic reaction in absence of ATP.
The relative potency of the compounds was evaluated by dose-response curves following the enzymatic reaction of HECT NEDD4 WT in real time for 120 minutes.
Percentage of inhibition is then determined by the equation: % inhibition=100×[1−(X)/(MAX)],
where MAX correspond to AUC of the vehicle (DMSO) treated enzyme, and X corresponds to the AUC of the compound treated enzyme.
(In TR-FRET formats the signal depends on donor and acceptor labels being close together.)
The term inhibition denotes the percentage by which the read-out fell short of the control. `CC(C)ONC(=O)/C=C/CNCCCCN1c2ccccc2CCc2ccc(Cl)cc21` [Compound 81, (E)-4-[4-(3-chloro-10,11-dihydro-5H-dibenzo[b,f]azepin-5-yl)butylamino]-N-isopropoxy-but-2-enamide maleate]: the inhibition at 11 µM is over 50%.
Next, `COCCOCCOC(=O)/C=C/CNCCCCN1c2ccccc2CCc2ccc(Cl)cc21` [Compound 93, 2-(2-Methoxy-ethoxy)-ethyl (E)-4-[4-(3-chloro-10,11-dihydro-dibenzo[b,f]azepin-5-yl)-butylamino]but-2-enoate maleate]: over 50%; `CCOC(=O)/C=C/CNCCC(=O)N1c2ccccc2CCc2ccc(Cl)cc21` [Compound 33, Ethyl (E)-4-{[3-(3-chloro-10,11-dihydro-5H-dibenzo[b,f]azepin-5-yl)-3-oxo-propyl]amino}but-2-enoate maleate]: under 30%.
Next, `CN(C/C=C/C(=O)OCCOCCOCCOCCOCCOCCNC(=O)CCCC[C@@H]1SC[C@@H]2NC(=O)N[C@@H]21)CCCCN1c2ccccc2CCc2ccc(Cl)cc21` [Compound 95, 2-(2-{2-[2-(2-{2-[5-((3aS,4S,6aR)-2-Oxo-hexahydro-thieno[3,4-d]imidazol-4-yl)-pentanoylamino]-ethoxy}-ethoxy)-ethoxy]-ethoxy}-ethoxy)-ethyl (E)-4-{[4-(3-chloro-10,11-dihydro-dibenzo[b,f]azepin-5-yl)-butyl]-methyl-amino}but-2-enoate]: over 50%.
Next, `CCOC(=O)/C=C/CNCCCCN1c2cc(Cl)ccc2C(=O)N(CCOCCOC)c2ccccc21` [Compound 86, Ethyl (E)-4-{[4-(3-chloro-10-[2-(2-methoxyethoxy)ethyl]-11-oxo-10,11-dihydro-5H-dibenzo[b,e][1,4]diazepin-5-yl)butyl]amino}but-2-enoate maleate]: over 50%; `CCOC(=O)/C=C/CNCCCN1c2ccccc2CCc2ccc(Br)cc21` [Compound 15, Ethyl (E)-4-[3-(3-bromo-10,11-dihydro-5H-dibenzo[b,f]azepin-5-yl)propylamino]but-2-enoate maleate]: over 50%.
`CC(=O)/C=C/CN(C)CCCCN1c2cc(Cl)ccc2COc2ccccc21` [Compound 70, (E)-5-[4-(3-Chlorodibenzo[b,e][1,4]oxazepin-5(11H)-yl)butyl-methyl-amino]pent-3-en-2-one maleate]: the inhibition at 11 µM is over 50%.
Turning to `CCOC(=O)/C=C/CNCC(O)CN1c2ccccc2CCc2ccc(Cl)cc21` (stereo not drawn) [Compound 34, Ethyl (E)-4-{[2-hydroxy-3-(3-chloro-10,11-dihydro-5H-dibenzo[b,f]azepin-5-yl)]propylamino} but-2-enoate], the inhibition at 11 µM was over 50%.
Next, `CN(C/C=C/C#N)CCCCN1c2ccccc2CCc2ccc(Cl)cc21` [Compound 73, (E)-4-[4-(3-Chloro-10,11-dihydro-5H-dibenzo[b,f]azepin-5-yl)butyl-methyl-amino]but-2-enenitrile maleate]: over 50%; `CON(C)C(=O)/C=C/CN(C)CCCCN1c2cc(Cl)ccc2C(=O)N(Cc2ccccc2)c2ccccc21` [Compound 59, (E)-4-{[4-(10-Benzyl-3-chloro-11-oxo-10,11-dihydro-5H-dibenzo[b,e][1,4]diazepin-5-yl)butyl](methyl)amino}-N-methoxy-N-methyl-but-2-enamide maleate]: over 50%.
Next, `C#CCOCCN1C(=O)c2ccc(Cl)cc2N(CCCCNC/C=C/C(=O)OCC)c2ccccc21` [Compound 88, Ethyl (E)-4-{[4-[3-chloro-10-[2-(prop-2-yn-1-yloxy)ethyl]-11-oxo-10,11-dihydro-5H-dibenzo[b,e][1,4]diazepin-5-yl)butyl]amino}but-2-enoate maleate]: over 50%; `CCOC(=O)/C=C/CNCCCCN1c2ccc(COC)cc2CCc2ccc(Cl)cc21` [Compound 75, Ethyl (E)-4-[4-(7-chloro-2-methoxymethyl-10,11-dihydro-dibenzo[b,f]azepin-5-yl)-butylamino]-but-2-enoate maleate]: over 50%; `O=C(O)/C=C/CNCCCCN1c2ccccc2CCc2ccc(Cl)cc21` [Compound 17, (E)-4-[4-(3-chloro-10,11-dihydro-5H-dibenzo[b,f]azepin-5-yl)butylamino]but-2-enoic acid 2,2,2-trifluoroacetate]: under 30%.
The value for `C#CCOCCOc1ccc2c(c1)CCc1ccc(Cl)cc1N2CCCCN(C)C/C=C/C#N` [Compound 90, (E)-4-{4-[7-chloro-2-(2-prop-2-ynoxyethoxy)-10,11-dihydro-5H-dibenzo[b,f]azepin-5-yl]butyl-methyl-amino}but-2-enenitrile maleate] was over 50%; that for `CN(C/C=C/C(=O)OCCOCCOCCOCCOCCOCCOCCOCCNC(=O)CCCC[C@@H]1SC[C@@H]2NC(=O)N[C@@H]21)CCCCN1c2ccccc2CCc2ccc(Cl)cc21` [Compound 96, 2-(2-{2-[2-(2-{2-[2-(2-[5-((3aS,4S,6aR)-2-Oxo-hexahydro-thieno[3,4-d]imidazol-4-yl)-pentanoylamino]-ethoxy)-ethoxy]-ethoxy}-ethoxy)-ethoxy]-ethoxy}-ethoxy)-ethyl (E)-4-{[4-(3-chloro-10,11-dihydro-dibenzo[b,f]azepin-5-yl)-butyl]-methyl-amino} but-2-enoate] was over 50%.
As to `CCONC(=O)/C=C/CNCCCCN1c2ccccc2CCc2ccc(Cl)cc21` [Compound 80, (E)-4-[4-(3-chloro-10,11-dihydro-5H-dibenzo[b,f]azepin-5-yl)butylamino]-N-ethoxy-but-2-enamide maleate], the inhibition at 11 µM was over 50%.
Next, `CCOC(=O)/C=C/CNCCCN1c2cc(Cl)ccc2CCc2cn(C)nc21` [Compound 31]: under 30%; `CNC(=O)/C=C/CNCCCCN1c2ccccc2CCc2ccc(Cl)cc21` [Compound 66, (E)-4-{[4-(3-chloro-10,11-dihydro-5H-dibenzo[b,f]azepin-5-yl)butyl]amino}-N-methyl-but-2-enamide hydrochloride]: 30 to 50%; `CCOC(=O)/C=C/CN(CC)CCCCN1c2ccccc2CCc2ccc(Cl)cc21` [Compound 64, Ethyl (E)-4-{[4-(3-chloro-10,11-dihydro-dibenzo[b,f]azepin-5-yl)butyl]-ethyl-amino}but-2-enoate maleate]: over 50%.
Turning to `CCOC(=O)/C=C/CNCCCCN1c2ccc(OC)cc2CCc2ccc(Cl)cc21` [Compound 67, Ethyl (E)-4-[4-(7-Chloro-2-methoxy-10,11-dihydro-dibenzo[b,f]azepin-5-yl)-butylamino]-but-2-enoate maleate], the inhibition at 11 µM was over 50%.
Next, `COC(=O)/C=C/CN(C)CCCCN1c2cc(Cl)ccc2COc2ccccc21` [Compound 68, Methyl (E)-4-[4-(3-chlorodibenzo[b,e][1,4]oxazepin-5(11H)-yl)butyl-methyl-amino]but-2-enoate]: over 50%.

For the origin of these results see patent publication US12403144B2, “HECT E3 ligase inhibitors and uses thereof” (IFOM FONDAZIONE ISTITUTO FIRC DI ONCOLOGIA MOLECOLARE, priority 2019, dated 2025).
